Measured values as given in US20250326748A1, “COMPOUNDS AND METHODS FOR MODULATING SPLICING” (REMIX THERAPEUTICS INC., priority 2022, published 2025).
pIC50: −log10 of the molar value. Counter-ions that a name gives are not always drawn. Like-named read-outs stand apart in the source and are kept apart here.

Assays:
HTT mRNA = test: Splicing RT-qPCR assay, HTT canonical (CJ) and alternative (AJ) junction mRNA; type: cell-based, human; details: Homo sapiens; for pIC50: canonical junction mRNA; for AC50: alternative junction mRNA, read-out: HTT AJ (AC50, increase in AJ mRNA)
Procedure, shortened: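 A673 or K562 cells were treated for 24 h at 37 °C with an 11-point 3-fold compound dilution series (top final 10 uM, DMSO ≤0.25%). Lysates then went to one-step TaqMan RT-qPCR quantifying canonical (CJ) and alternative-exon (AJ) junction transcripts, normalized to a housekeeping gene.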

HiBiT-tagged MYB protein = test: HiBiT protein abundance assay, MYB (K562 HiBiT knock-in); type: cell-based, human; details: HiBiT knock-in cells, 24 hours
Experimental: (§1) Compounds described herein were used to screen for effects on quantitative protein abundance using a HiBit assay system (Promega). Quantitative protein abundance was determined by measuring the protein levels of HiBit-tagged protein targets expressed in cell culture via luminescence using the Nano-Glo HiBiT Lytic Detection System, which uses a split complementation assay format to reconstitute NanoBiT enzyme to generate a luminescent signal. A protein abundance assay was developed such that endogenous protein targets could be modified with the HiBiT peptide tag and their abundance could be assessed after compound treatment. Briefly, K562 cell lines containing a HiBiT-modification were treated with various compounds described herein (e.g., compounds of Formulas (I), or (II)). After treatment for 24 hours, the protein abundance of a specific target was determined by measuring luminescence.
(§2) • Promega Nano-Glo HiBiT Lytic Detection System (cat #N3030) • Corning 384-well TC-treated microplates (cat #3570)
(§3) Cells were maintained in IMDM with 10% FBS. Before the assay, cells were diluted with […] growth media (IMDM+1% FBS media) and were seeded in a 384-well plate at a density of 10000 cells/well (for each cell line listed in Table 6). Each compound was prepared as a 10-point 3-old serial dilution in DMSO with the top dose at a final concentration of 10 μM in the well. Unmodified K562 cells were added at the previously specified density with DMSO to serve as an assay baseline and positive control (PC) and DMSO only with the respective modified cell lines was added to the negative control (NC) columns. Final DMSO concentration was kept at or below 0.25%. Treated cell plates were placed in an incubator at 37° C. with 5% CO2 for 24 hours. After 24 hours, 25 μL of Complete HiBit Lytic reagent was added to each well at room temperature (e.g. one plate requiring 10 ml Lytic Buffer, 100 μL LgBiT Protein, 200 μL Lytic Substrate), shaken for 5 minutes at 600 RPM, then left to sit for 10 minutes for signal to stabilize before reading on a Spark Cyto plate reader (Tecan) with a 500 ms measurement time.
(§4) To determine compound effects on protein abundance of each target in Table 6, the percent response for each respective cell line was calculated at each compound concentration as follows:
(§5) For the normalized response at each concentration, a four-parameter logistical regression was fit to the data and the response was interpolated at the 50% value to determine a concentration for protein abundance at 50% (IC50) the untreated control.

HiBiT-tagged HTT protein = test: HiBiT protein abundance assay, HTT (K562 HiBiT knock-in); type: cell-based, human; details: HiBiT knock-in cells, 24 hours
Experimental: as §1, §2, §3, §4, §5

K562 cells = test: Cell viability, Cell Titer Glo 2.0 assay, K562; details: 72 hours
[1] = 24 h, RT-qPCR, A673 or K562 cells, 24 hours treatment, read-out: HTT CJ (IC50, decrease in CJ mRNA)
[2] = qPCR panel, read-out: HTT CJ (decrease in CJ mRNA levels, IC50)
[3] = RT-qPCR, A673 or K562 cells, 24 hours treatment

| SMILES | pIC50 (HTT mRNA; [1]) | pIC50 (HTT mRNA; [2]) | pIC50 (HiBiT-tagged MYB protein) | pIC50 (HiBiT-tagged HTT protein) | AC50 (HTT mRNA; [3]) [nM] | Effect on Cell Viability, K562 (K562 cells) |
| --- | --- | --- | --- | --- | --- | --- |
| CN[C@@H]1CN(c2cnc3nc(-c4cc5cn(C)nc5c(C)c4O)ccc3c2)C[C@H]1F (single isomer, unassigned) [Compound 130] | 6.00 to 7.00 | 6.00 to 7.00 | 6.00 to 7.00 | 6.00 to 7.00 | 100 to 1000 | B (100-1000 nM) |
| CNC1CCN(c2cnc3nc(-c4cc5cn(C)nc5c(C)c4O)ncc3c2)C1 (centres unmarked) [Compound 104, 2,7-dimethyl-5-{6-[3-(methylamino)pyrrolidin-1-yl]pyrido[2,3-d]pyrimidin-2-yl}indazol-6-ol] | 6.00 to 7.00 | 6.00 to 7.00 | > 7.00 | 6.00 to 7.00 | 100 to 1000 | A (<100 nM) |
| Cc1c(O)c(-c2ccc3cc(N4CCC(NCC5CC5)C4)cnc3n2)cc2cn(C)nc12 (centres unmarked) [Compound 105, 5-(6-{3-[(cyclopropylmethyl)amino]pyrrolidin-1-yl}-1,8-naphthyridin-2-yl)-2,7-dimethylindazol-6-ol] | 6.00 to 7.00 | 6.00 to 7.00 | > 7.00 | > 7.00 | 100 to 1000 | A (<100 nM) |
| CCNC1CCN(c2cnc3nc(-c4cc5cn(C)nc5c(F)c4O)ccc3c2)C1 (centres unmarked) [Compound 106, 5-{6-[3-(ethylamino)pyrrolidin-1-yl]-1,8-naphthyridin-2-yl}-7-fluoro-2-methylindazol-6-ol] | 6.00 to 7.00 | 6.00 to 7.00 | > 7.00 | > 7.00 | 100 to 1000 | A (<100 nM) |
| Cc1cc(-c2cc3cn(C)nc3c(C)c2O)nc2ncc(N3CCNCC3)cc12 [Compound 151, 2,7-dimethyl-5-[4-methyl-6-(piperazin-1-yl)-1,8-naphthyridin-2-yl]indazol-6-ol] | 6.00 to 7.00 | 6.00 to 7.00 | > 7.00 | 6.00 to 7.00 | 100 to 1000 | – |
| CN(c1cnc2nc(-c3cc4cn(C)nc4c(F)c3O)ccc2c1)C1CCNCC1 [Compound 284] | 5.00 to 6.00 | 5.00 to 6.00 | 6.00 to 7.00 | 5.00 to 6.00 | 1000 to 10000 | – |

More lines, main results first:

| pIC50 (HTT mRNA; [1]) | pIC50 (HTT mRNA; [2]) | pIC50 (HiBiT-tagged MYB protein) | pIC50 (HiBiT-tagged HTT protein) | SMILES | AC50 (HTT mRNA; [3]) [nM] | Effect on Cell Viability, K562 (K562 cells) |
| --- | --- | --- | --- | --- | --- | --- |
| 5.00 to 6.00 | 5.00 to 6.00 | 6.00 to 7.00 | 5.00 to 6.00 | CN[C@H]1CN(c2cnc3nc(-c4cc5cn(C)nc5c(C)c4O)ccc3c2)C[C@@H]1F (single isomer, unassigned) [Compound 131] | 1000 to 10000 | C (1000-9999 nM) |
| > 7.00 | > 7.00 | > 7.00 | > 7.00 | Cc1c(O)c(-c2ccc3cc(N4CCC(NCC5CC5)C4)cnc3n2)cc2cn(C)nc12 (stereo in doubt) [Compound 119, 5-{6-[(3R)-3-[(cyclopropylmethyl)amino]pyrrolidin-1-yl]-1,8-naphthyridin-2-yl}-2,7-dimethylindazol-6-ol] | 100 to 1000 | A (<100 nM) |
| > 7.00 | > 7.00 | > 7.00 | > 7.00 | CN[C@@H]1CCN(c2cnc3nc(-c4cc5cn(C)nc5c(C)c4O)ncc3c2)C1 [Compound 107, 2,7-dimethyl-5-{6-[(3R)-3-(methylamino)pyrrolidin-1-yl]pyrido[2,3-d]pyrimidin-2-yl}indazol-6-ol hydrochloride] | < 100 | A (<100 nM) |
| 6.00 to 7.00 | 6.00 to 7.00 | > 7.00 | > 7.00 | CCN[C@H]1CCN(c2cnc3nc(-c4cc5cn(C)nc5c(C)c4O)ccc3c2)C1 [Compound 123] | 100 to 1000 | – |
| 6.00 to 7.00 | 6.00 to 7.00 | > 7.00 | 6.00 to 7.00 | Cc1c(O)c(-c2cc(C3CC3)c3cc(N4CCNCC4)cnc3n2)cc2cn(C)nc12 [Compound 144, 5-(4-cyclopropyl-6-(piperazin-1-yl)-1,8-naphthyridin-2-yl)-2,7-dimethyl-2H-indazol-6-ol bis(2,2,2-trifluoroacetate)] | 100 to 1000 | – |
